From ChEMBL document CHEMBL3244333, “2-Acetylpyridine thiosemicarbazones. 2. N4,N4-Disubstituted derivatives as potential antimalarial agents” (J Med Chem, 1979)
The source made the active and inactive calls. The calls are words filed in the database; no cut-off is given here.

Tests used:
Plasmodium berghei [1] = assay: Antimalarial activity against Plasmodium berghei KBG 173 infected in mouse assessed as increase of mean survival time at 40 mg/kg; type: functional
Plasmodium berghei [2] = assay: Antimalarial activity against Plasmodium berghei KBG 173 infected in mouse assessed as increase of mean survival time at 640 mg/kg; type: functional
Plasmodium berghei [3] = assay: Antimalarial activity against Plasmodium berghei KBG 173 infected in mouse assessed as increase of mean survival time at 160 mg/kg; type: functional
Plasmodium berghei [4] = assay: Antimalarial activity against Plasmodium berghei KBG 173 infected in mouse assessed as cured animal from parasite infection at 40 mg/kg; type: functional, organism-based; parameters: dose 40 mg/kg
Plasmodium berghei [5] = assay: Antimalarial activity against Plasmodium berghei KBG 173 infected in mouse assessed as cured animal from parasite infection at 160 mg/kg; type: functional, organism-based; parameters: dose 160 mg/kg
Mus musculus [6] = assay: Toxicity in Plasmodium berghei KBG 173 infected mouse at 160 mg/kg; type: organism-based; parameters: dose 160 mg/kg; settings: in vivo
Plasmodium berghei [7] = assay: Antimalarial activity against Plasmodium berghei KBG 173 infected in mouse assessed as cured animal from parasite infection at 640 mg/kg; type: functional, organism-based; parameters: dose 640 mg/kg
Mus musculus [8] = assay: Toxicity in Plasmodium berghei KBG 173 infected mouse at 40 mg/kg; type: organism-based; parameters: dose 40 mg/kg; settings: in vivo
Mus musculus [9] = assay: Toxicity in Plasmodium berghei KBG 173 infected mouse at 640 mg/kg; type: organism-based; parameters: dose 640 mg/kg; settings: in vivo
Plasmodium berghei [10] = assay: Antimalarial activity against Plasmodium berghei KBG 173 infected in mouse assessed as cured animal from parasite infection at 320 mg/kg; type: functional, organism-based; parameters: dose 320 mg/kg
Plasmodium berghei [11] = assay: Antimalarial activity against Plasmodium berghei KBG 173 infected in mouse assessed as cured animal from parasite infection at 80 mg/kg; type: functional, organism-based; parameters: dose 80 mg/kg
Mus musculus [12] = assay: Toxicity in Plasmodium berghei KBG 173 infected mouse at 320 mg/kg; type: organism-based; parameters: dose 320 mg/kg; settings: in vivo

| Structure (SMILES) | Survival (Plasmodium berghei [1]) | Survival (Plasmodium berghei [2]) | Survival (Plasmodium berghei [3]) | Activity (Plasmodium berghei [4]) | Activity (Plasmodium berghei [5]) | Activity (Mus musculus [6]) | Activity (Plasmodium berghei [7]) | Activity (Mus musculus [8]) | Activity (Mus musculus [9]) | Activity (Plasmodium berghei [10]) | Activity (Plasmodium berghei [11]) | Activity (Mus musculus [12]) |
| --- | --- | --- | --- | --- | --- | --- | --- | --- | --- | --- | --- | --- |
| C/C(=N/NC(=S)N1CCCCCCCCCCCC1)c1ccccn1 | 0 days | 2.9 days | 0.1 days | – | – | – | – | – | – | – | – | – |
| C/C(=N/NC(=S)N1CC(C)OC(C)C1)c1ccccn1 (stereo not drawn) | – | 0 days | 0 days | Active | Active | Toxic | Active | Toxic | Toxic | – | – | – |
| C/C(=N/NC(=S)N1CCCCC1)c1ccccn1 | -0.4 days | 0 days | -0.4 days | – | – | – | – | – | – | – | – | – |
| C/C(=N/NC(=S)N(Cc1ccccc1)Cc1ccccc1)c1ccccn1 | -0.1 days | -0.2 days | 1.6 days | – | – | Toxic | – | – | Toxic | – | – | – |
| C/C(=N/NC(=S)N(C)CC(O)C(O)C(O)C(O)CO)c1ccccn1 (stereo not drawn) | 0.2 days | 0.3 days | 1.4 days | – | – | – | – | – | Toxic | – | – | – |
| C/C(=N/NC(=S)N1CCN(C)CC1)c1ccccn1 | 0 days | 0 days | 0 days | Active | Active | Toxic | – | Toxic | Toxic | – | – | – |
| C/C(=N/NC(=S)N(CC(C)C)CC(C)C)c1ccccn1 | -0.2 days | 0.5 days | 0.8 days | – | – | Toxic | – | – | Toxic | – | – | – |
| C/C(=N/NC(=S)N1CCC1)c1ccccn1 | 1.7 days | 0 days | 0 days | – | Active | Toxic | Active | – | Toxic | – | – | – |
| C/C(=N/NC(=S)N1CCCCCCC1)c1ccccn1 | 0.6 days | – | – | – | Active | – | Active | – | – | Active | Active | – |
| C/C(=N/NC(=S)N1CCC2(CC1)OCCO2)c1ccccn1 | 0 days | 0 days | 0 days | Active | Active | Toxic | – | Toxic | Toxic | – | – | – |
| C/C(=N/NC(=S)N1CCC(O)CC1)c1ccccn1 | -0.1 days | 0.6 days | 0 days | – | Active | Toxic | – | Toxic | Toxic | – | – | – |
| C/C(=N/NC(=S)N1CCN(c2ccccn2)CC1)c1ccccn1.Cl | 3.2 days | 0 days | – | – | – | – | – | – | Toxic | – | – | – |
| C/C(=N/NC(=S)N1CCC(c2ccccc2)CC1)c1ccccn1 | 0.4 days | – | – | – | Active | – | Active | – | – | Active | Active | – |
| C/C(=N/NC(=S)N(C)CCc1ccccc1)c1ccccn1 | 0.4 days | – | 7.2 days | – | Active | – | Active | – | – | – | – | – |
| C/C(=N/NC(=S)N1CCN(c2ccc(F)cc2)CC1)c1ccccn1 | – | 9 days | – | Active | Active | – | Active | – | – | – | – | – |
| C/C(=N/NC(=S)N1CCCCC1C)c1ccccn1 (stereo not drawn) | – | 0 days | 0 days | Active | Active | Toxic | Active | – | Toxic | – | – | – |

| Structure (SMILES) | Survival (Plasmodium berghei [1]) | Survival (Plasmodium berghei [2]) | Survival (Plasmodium berghei [3]) | Activity (Plasmodium berghei [4]) | Activity (Plasmodium berghei [5]) | Activity (Mus musculus [6]) | Activity (Plasmodium berghei [7]) | Activity (Mus musculus [8]) | Activity (Mus musculus [9]) | Activity (Plasmodium berghei [10]) | Activity (Plasmodium berghei [11]) | Activity (Mus musculus [12]) |
| --- | --- | --- | --- | --- | --- | --- | --- | --- | --- | --- | --- | --- |
| C/C(=N/NC(=S)N(C)C1CCCCC1)c1ccccn1 | 3.7 days | -0.3 days | – | – | Active | Toxic | – | – | Toxic | – | – | – |
| C/C(=N/NC(=S)N1CCN(c2ccccn2)CC1)c1ccccn1 | – | – | – | Active | Active | – | Active | – | – | Active | Active | – |
| CCCN(CCC)C(=S)N/N=C(/C)c1ccccn1 | 0 days | 3 days | 0 days | Active | Active | Toxic | – | Toxic | – | – | – | – |
| CCC1CCCCN1C(=S)N/N=C(/C)c1ccccn1 (stereo not drawn) | 5.6 days | -0.2 days | – | – | Active | – | – | – | Toxic | – | – | – |
| C/C(=N/NC(=S)N1CCc2ccccc21)c1ccccn1 | 0.5 days | 0.3 days | 0.3 days | – | – | Toxic | – | – | Toxic | – | – | – |
| C/C(=N/NC(=S)N1CCc2ccccc2C1)c1ccccn1 | 3.5 days | – | 7.7 days | – | Active | – | Active | – | – | – | – | – |
| C/C(=N/NC(=S)N1CCCN(C)CC1)c1ccccn1 | 0.8 days | 0 days | 0.8 days | – | – | Toxic | – | Toxic | Toxic | – | – | – |
| CCOC(=O)N1CCN(C(=S)N/N=C(/C)c2ccccn2)CC1 | – | 0 days | 0 days | Active | Active | Toxic | Active | Toxic | Toxic | – | – | – |
| C/C(=N/NC(=S)N1CCCC1)c1ccccn1 | 8.9 days | 0 days | 0 days | Active | Active | Toxic | Active | Toxic | Toxic | – | – | – |
| C/C(=N/NC(=S)N1CCCC(C)C1)c1ccccn1 (stereo not drawn) | 4.1 days | 0 days | – | – | Active | Toxic | Active | – | Toxic | – | – | – |
| C/C(=N/NC(=S)N1CC=CCC1)c1ccccn1 | 4 days | 7.4 days | 1.4 days | – | – | Toxic | – | – | Toxic | – | – | – |
| C/C(=N/NC(=S)N1CCC(C)CC1)c1ccccn1 | – | 0 days | 0 days | Active | Active | Toxic | Active | – | Toxic | – | – | – |
| C/C(=N/NC(=S)N(C)C)c1ccccn1 | 0.5 days | 0 days | 0 days | – | Active | Toxic | Active | Toxic | Toxic | – | – | – |
| C/C(=N/NC(=S)N1CCCCCC1)c1ccccn1 | 6.2 days | – | – | Active | Active | Toxic | Active | – | Toxic | Active | Active | Toxic |
| C/C(=N/NC(=S)N1CCCCCCCC1)c1ccccn1 | -0.3 days | 9 days | 1.7 days | – | – | – | Active | – | – | – | – | – |
